According to patent US20090030179A1, “ANTIMICROBIAL PEPTIDE AND USE THEREOF” (TOAGOSEI CO., LTD, priority 2005, published 2009):
Residues, ends and D or L forms follow the SMILES beside them.

Legend:
[1] = system: Gram-positive bacteria (Staphylococcus aureus); type: cell-based; details: for Antimicrobial Activities (MIC) S. aureus: Gram-positive bacteria, 24 h
Method: (§1) Regarding the antimicrobial peptides (samples 1 to 12) and the peptide of comparative sample 1 related to the present invention, their antimicrobial activities (minimum inhibitory concentration: MIC) against Gram-negative bacteria (Escherichia coli) and Gram-positive bacteria (Staphylococcus aureus) were determined, as described below, by liquid medium dilution method using a 96-well microplate. […] The prepared liquid broth media containing the peptide at each concentration described above were then loaded onto 96-well microplates in 100-μL aliquots. At the same time, the tested bacteria cultured for 18 hours at 37° C. on an agar plate (“Muller Hinton Agar” manufactured by DIFCO) were collected by scraping with a loop, and then suspended in sterilized physiological saline. 5 μL of bacterial suspension prepared to be equivalent to 2×10^7 cells/mL was inoculated (number of bacteria to be tested: approximately 1×10^6 cells/mL) into each well of the above-described microplate filled with the liquid broth media containing the peptide at each concentration. After inoculation, the microplate was then incubated in an incubator at 37° C., and the presence of bacteria was evaluated based on the turbidity after 24 hours. The minimum drug concentration (polypeptide concentration), at which no increase in bacterial turbidity was detected at the time of measurement, was defined as MIC (minimum inhibitory concentration) (unit: μM) in the present embodiment.

[2] = system: Gram-negative bacteria (Escherichia coli); type: cell-based; details: for Antimicrobial Activities (MIC) E. coli: Gram-negative bacteria, 24 h
Method: as §1

Molecule	Antimicrobial Activities (MIC) S. aureus [1] [µM]	Antimicrobial Activities (MIC) E. coli [2] [µM]	antimicrobial activity (in words), S. aureus ([1]; summary of Table 2)	antimicrobial activity (in words), E. coli ([2]; summary of Table 2)
H-SLKHLCRKALRSFLT-NH2 [Sample 10, SLKHLCRKALRSFLT]	12.5	–	–	–
CC(C)C[C@H](NC(=O)[C@H](CS)NC(=O)[C@H](CCCNC(=N)N)NC(=O)[C@H](CCC(=O)O)NC(=O)[C@H](CCCCN)NC(=O)[C@H](CC(C)C)NC(=O)[C@@H](N)[C@@H](C)O)C(=O)N[C@@H](CCC(N)=O)C(=O)N[C@H](C(=O)N[C@H](C(=O)N[C@@H](CCCNC(=N)N)C(=O)N[C@@H](CO)C(=O)N[C@@H](CC(C)C)C(=O)N[C@H](C(=O)N[C@@H](CCCCN)C(N)=O)C(C)C)C(C)C)C(C)C [Sample 1, TLKERCLQVVRSLVK]	3.13	6.25	–	–
H-TLHQQCIRVLKNNID-NH2 [Comparative Sample 1, TLHQQCIRVLKNNID, reference compound]	>200	>200	no antimicrobial activity was detected	no antimicrobial activity was detected
H-SLQHLCRFRIRQLVR-NH2 [Sample 9, SLQHLCRFRIRQLVR]	12.5	–	–	–
H-TLQHLCRKTVNGHLD-NH2 [Sample 6, TLQHLCRKTVNGHLD]	50	–	–	–
CC[C@H](C)[C@H](NC(=O)[C@H](Cc1ccc(O)cc1)NC(=O)[C@H](CCC(N)=O)NC(=O)[C@H](CC(C)C)NC(=O)[C@@H](N)CO)C(=O)N[C@@H](CS)C(=O)N[C@@H](CCCNC(=N)N)C(=O)N[C@@H](C)C(=O)N[C@H](C(=O)N[C@H](C(=O)N[C@@H](CS)C(=O)N[C@@H](CCCNC(=N)N)C(=O)N[C@@H](CS)C(=O)N[C@H](C(=O)N[C@H](C(N)=O)[C@@H](C)O)[C@@H](C)O)[C@@H](C)CC)C(C)C [Sample 8, SLQYICRAVICRCTT] (H-SLQYICRAVICRCTT-NH2)	50	–	–	–
H-SLTHLCRLEIRSSIK-NH2 [Sample 12, SLTHLCRLEIRSSIK]	25	–	–	–
H-PLAHLCRLRVRKAIG-NH2 [Sample 11, PLAHLCRLRVRKAIG]	12.5	–	–	–
H-SLQHICRMSIRRVMS-NH2 [Sample 3, SLQHICRMSIRRVMS]	6.25	12.5	–	–
H-TLLSLCRVAVRRALG-NH2 [Sample 4, TLLSLCRVAVRRALG]	1.56	6.25	–	–
H-SLQYLCRFVIRQYTR-NH2 [Sample 2, SLQYLCRFVIRQYTR]	6.25	25	–	–
H-TLKKRCLQVVRKLVK-NH2 [Sample 5, TLKKRCLQVVRKLVK]	3.13	3.13	–	–
CC[C@H](C)[C@H](NC(=O)[C@H](Cc1c[nH]cn1)NC(=O)[C@H](CCC(N)=O)NC(=O)[C@H](CC(C)C)NC(=O)[C@@H](N)CO)C(=O)N[C@@H](CS)C(=O)N[C@@H](CCCNC(=N)N)C(=O)N[C@H](C(=O)N[C@H](C(=O)N[C@H](C(=O)N[C@@H](CS)C(=O)N[C@@H](CC(N)=O)C(=O)N[C@@H](CS)C(=O)N[C@H](C(=O)N[C@H](C(N)=O)[C@@H](C)O)[C@@H](C)O)[C@@H](C)CC)C(C)C)[C@@H](C)O [Sample 7, SLQHICRTVICNCTT] (H-SLQHICRTVICNCTT-NH2)	50	–	–	–
